{"source": "patent US12329158B2", "about": "“Large-scale methods of uniformly coating packaging surfaces with a volatile antimicrobial to preserve food freshness” (AGROFRESH INC., priority 2013, dated 2025)", "key": {"[1]": {"test_system": "Botrytis cinerea", "test": "Gray mold on strawberry, volatile assay (Example 23)", "format": "in vivo", "method": "Eight strawberries (per repetition, in triplicate) are placed in an industry standard 1-lb PET clamshell with the stem-end facing down.\nCompound A is mixed acetone and 250 μL of the mixture is pipetted into a small glass tube. […] After incubation, fruits are evaluated for disease (scale 0 to 4, with ≤1 indicating marketable fruit and 4 indicating ≥50% of fruit surface covered by pathogen) up to 4 days at 21° C."}, "[2]": {"test_system": "Botrytis cinerea", "test": "In vitro volatile assay (Example 24)", "format": "cell-based", "conditions": "72 h, headspace, 100% control, 3 days at 23 C, read-out: Volatile MIC (mg/L) B. cinerea", "method": "(§1) Volatile assay: 12-well (6.5 mL volume per well) microtiter plates are used. A 3-mL volume of half strength PDA is added to each well. […] A Whatman #1 filter disk (Cat. No. 1001-0155) is placed, in duplicate, on the underside of a polyethylene PCR plate sealing film. […] The acetone is permitted to evaporate for 5 minutes. The headspace around the inoculum is then sealed inside the well by the film with the adhering disk containing the fungicide. Plates are inverted, placed over the treated disks, and sealed to prevent any of the chemical from flaking from the disk and falling onto the inoculated agar. […] Contact assay: 6-well (16.5 mL volume per well) microtiter plates are used for an in vitro inhibition assay. […] A 7.5-mL volume of the amended media is added to each well of the microtiter plate. […] The plates are sealed with a clear film and incubated for 3 days at 23° C. After incubation, plates are evaluate for percent growth relative to acetone only control."}, "[3]": {"test_system": "Penicillium expansum", "test": "In vitro volatile assay (Example 24)", "format": "cell-based", "conditions": "72 h, headspace, 100% control, 3 days at 23 C, read-out: Volatile MIC (mg/L) P. expansum", "method": "as §1"}, "[4]": {"test_system": "Penicillium digitatum", "test": "Green mold on orange, volatile assay (Example 25)", "format": "in vivo", "conditions": "50 mg/L, day 3 at 21 C after 5 days at 1 C"}, "[5]": {"test_system": "Aspergillus brasiliensis", "test": "Headspace treatment of inoculated grains (Example 28)", "format": "in vivo", "conditions": "for Fungal growth on PDA (mm): 10 mg/L headspace", "method": "An in vivo assay is used to evaluate the ability of Compound A (1-hydroxy-5-fluoro-1, 3-dihydro-2, 1-benzoxaborole) to control fungal growth of seeds.\nGrains consisting of corn, wheat, rice, rye, millet and barley are surface sterilized with 0.825% NaOCl for 1 minute and rinsed thrice with sterile distilled water. The grains are inoculated by soaking them in a 1×10^6 spores/mL suspension of Aspergillus brasiliensis for 1 minute. The excess inoculum is blotted out with a sterile paper towel before plating five seeds in a Petri plate containing 25 mL of PDA. For determination of efficacy, Compound A is diluted in acetone and added to 42.5 mm Whatman #1 filter disks (Cat. No. 1001-042) attached to the inner side of the lid in a dose dependent manner to achieve a final headspace concentration of 0.4, 2, or 10 mg/L. The acetone is permitted to evaporate for five minutes before closing plate and sealing it with parafilm. The plates are incubated at 23° C. for three days."}, "[6]": {"test_system": "Botrytis cinerea", "test": "Dose response, vapor-coated clamshells; strawberries (Example 3)", "format": "in vivo", "conditions": "Inoculated Fruit, sublimation", "method": "Five milligrams of Compound A was dissolved in 1 ml of ethanol prior to being uniformly administered to the interior of the clamshell by painting or spraying, and then dried for 5 minutes. After coating the clamshells with Compound A using various application techniques (i.e., sublimation, spraying, or painting), eight ethanol-washed strawberries were placed in the clamshell with stem end facing downwards. Each strawberry fruit was wounded using a T15 screwdriver tip to a uniform depth of eight mm (8 mm). […] Uninoculated strawberries were removed from their commercial package, and directly transferred into treated clamshells without any washing or inoculation steps.\nTreated clamshells lids were closed, and then placed at 1° C. for an initial time period of 5 days. Clamshells were then removed from low temperature, and held for a second time period of 6 days at room temperature where the point of inoculation on the strawberry fruits was assessed for indication of disease incidence reported as a percentage (%). Severity of disease incidence was also reported.\nThis in vivo assay was used to evaluate the ability of vaporized Compound A to volatilize from a clamshell in order to control or inhibit pathogenic microorganisms. This experiment was conducted exactly as described in Example 1, with a few exceptions. After equilibrating the clamshell overnight at 21° C., Compound A was administered to the clamshell as a vapor only. In addition, Compound A was vapor-coated onto the surface of the clamshell at a final treatment rate of 3.16 mg/clamshell, 1 mg/clamshell, or 0.316 mg/clamshell. After vapor-coating application, Compound A headspace was permitted to equilibrate overnight at 21° C. Strawberries were inoculated with Botrytis cinerea, placed within the clamshells for an initial time period, and assessed for disease incidence and severity over a second time period as described in Example 1."}, "[7]": {"test_system": "M. piriformis", "test": "Volatile MIC assay (Example 11)", "format": "cell-based", "conditions": "Mucor piriformis"}}}
{"smiles": "OB1OCc2cc(F)ccc21", "note": "[Compound A, 5-fluoro-1,3-dihydro-1-hydroxy-2,1-benzoxaborole]", "values": [{"measurement": "Disease Severity (0 to 4)", "setting": "[1]; 0.02 mg/L, Day 0", "result": 0.0}, {"measurement": "Disease Severity (0 to 4)", "setting": "[1]; 0.02 mg/L, Day 1", "result": 0.0}, {"measurement": "Disease Severity (0 to 4)", "setting": "[1]; 0.02 mg/L, Day 2", "result": 0.1}, {"measurement": "Disease Severity (0 to 4)", "setting": "[1]; 0.02 mg/L, Day 3", "result": 0.2}, {"measurement": "Disease Severity (0 to 4)", "setting": "[1]; 0.02 mg/L, Day 4", "result": 0.7}, {"measurement": "Disease Severity (0 to 4)", "setting": "[1]; 0.1 mg/L, Day 0", "result": 0.0}, {"measurement": "Disease Severity (0 to 4)", "setting": "[1]; 0.1 mg/L, Day 1", "result": 0.0}, {"measurement": "Disease Severity (0 to 4)", "setting": "[1]; 0.1 mg/L, Day 2", "result": 0.0}, {"measurement": "Disease Severity (0 to 4)", "setting": "[1]; 0.1 mg/L, Day 3", "result": 0.0}, {"measurement": "Disease Severity (0 to 4)", "setting": "[1]; 0.1 mg/L, Day 4", "result": 0.0}, {"measurement": "Disease Severity (0 to 4)", "setting": "[1]; 0.5 mg/L, Day 0", "result": 0.0}, {"measurement": "Disease Severity (0 to 4)", "setting": "[1]; 0.5 mg/L, Day 1", "result": 0.0}, {"measurement": "Disease Severity (0 to 4)", "setting": "[1]; 0.5 mg/L, Day 2", "result": 0.0}, {"measurement": "Disease Severity (0 to 4)", "setting": "[1]; 0.5 mg/L, Day 3", "result": 0.0}, {"measurement": "Disease Severity (0 to 4)", "setting": "[1]; 0.5 mg/L, Day 4", "result": 0.0}, {"measurement": "Disease Severity (0 to 4)", "setting": "[1]; 2.5 mg/L, Day 0", "result": 0.0}, {"measurement": "Disease Severity (0 to 4)", "setting": "[1]; 2.5 mg/L, Day 1", "result": 0.0}, {"measurement": "Disease Severity (0 to 4)", "setting": "[1]; 2.5 mg/L, Day 2", "result": 0.0}, {"measurement": "Disease Severity (0 to 4)", "setting": "[1]; 2.5 mg/L, Day 3", "result": 0.0}, {"measurement": "Disease Severity (0 to 4)", "setting": "[1]; 2.5 mg/L, Day 4", "result": 0.0}, {"measurement": "MIC", "setting": "[2]", "result": 0.3, "unit": "mg/L"}, {"measurement": "MIC", "setting": "[3]", "result": 2.2, "unit": "mg/L"}, {"measurement": "Orange Sporulation (mm)", "setting": "[4]", "result": 0.0, "unit": "mm"}, {"measurement": "Fungal growth on PDA (mm)", "setting": "[5]; Barley", "result": 0, "unit": "mm"}, {"measurement": "Fungal growth on PDA (mm)", "setting": "[5]; Corn Dry", "result": 0, "unit": "mm"}, {"measurement": "Fungal growth on PDA (mm)", "setting": "[5]; Millet", "result": 0, "unit": "mm"}, {"measurement": "Fungal growth on PDA (mm)", "setting": "[5]; Rice", "result": 0, "unit": "mm"}, {"measurement": "Fungal growth on PDA (mm)", "setting": "[5]; Rye", "result": 0, "unit": "mm"}, {"measurement": "Fungal growth on PDA (mm)", "setting": "[5]; Wheat", "result": 0, "unit": "mm"}, {"measurement": "control of Aspergillus brasiliensis", "setting": "[5]; grains, headspace treatment", "result": 100, "unit": "%"}, {"measurement": "Gray Mold Severity (0-4)", "setting": "[6]; 0.316 mg per clamshell, Day 1", "result": 0.4}, {"measurement": "Gray Mold Severity (0-4)", "setting": "[6]; 0.316 mg per clamshell, Day 2", "result": 1.3}, {"measurement": "Gray Mold Severity (0-4)", "setting": "[6]; 0.316 mg per clamshell, Day 3", "result": 2.2}, {"measurement": "Gray Mold Severity (0-4)", "setting": "[6]; 0.316 mg per clamshell, Day 4", "result": 3.4}, {"measurement": "Gray Mold Severity (0-4)", "setting": "[6]; 0.316 mg per clamshell, Day 5", "result": 3.8}, {"measurement": "Gray Mold Severity (0-4)", "setting": "[6]; 0.316 mg per clamshell, Day 6", "result": 3.9}, {"measurement": "Gray Mold Severity (0-4)", "setting": "[6]; 1.00 mg per clamshell, Day 1", "result": 0.0}, {"measurement": "Gray Mold Severity (0-4)", "setting": "[6]; 1.00 mg per clamshell, Day 2", "result": 0.0}, {"measurement": "Gray Mold Severity (0-4)", "setting": "[6]; 1.00 mg per clamshell, Day 3", "result": 0.0}, {"measurement": "Gray Mold Severity (0-4)", "setting": "[6]; 1.00 mg per clamshell, Day 4", "result": 0.1}, {"measurement": "Gray Mold Severity (0-4)", "setting": "[6]; 1.00 mg per clamshell, Day 5", "result": 0.4}, {"measurement": "Gray Mold Severity (0-4)", "setting": "[6]; 1.00 mg per clamshell, Day 6", "result": 0.7}, {"measurement": "Gray Mold Severity (0-4)", "setting": "[6]; 3.16 mg per clamshell, Day 1", "result": 0.0}, {"measurement": "Gray Mold Severity (0-4)", "setting": "[6]; 3.16 mg per clamshell, Day 2", "result": 0.0}, {"measurement": "Gray Mold Severity (0-4)", "setting": "[6]; 3.16 mg per clamshell, Day 3", "result": 0.0}, {"measurement": "Gray Mold Severity (0-4)", "setting": "[6]; 3.16 mg per clamshell, Day 4", "result": 0.0}, {"measurement": "Gray Mold Severity (0-4)", "setting": "[6]; 3.16 mg per clamshell, Day 5", "result": 0.1}, {"measurement": "Gray Mold Severity (0-4)", "setting": "[6]; 3.16 mg per clamshell, Day 6", "result": 0.2}, {"measurement": "MIC", "setting": "[7]", "result": 1.1, "unit": "µg/mL"}]}
